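A five-concentration, 48-hour dose response in 96-well plates underlies each endpoint, interpolated linearly between surrounding concentrations. The concentration for 50% growth inhibition is given as GI50.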 Calls of active or inactive are those of the source. Cut-off read from the data, not from the text of the source: active = GI50 up to about 1.1 µM and inactive = higher.
Key:
Experiment in all cases: NCI-60 cell line screen, 48 h
HL-60 = tested on: HL-60
NCI-H23 = tested on: NCI-H23
LOX IMVI = tested on: LOX IMVI
ACHN = tested on: ACHN
MOLT-4 = tested on: MOLT-4
CAKI-1 = tested on: CAKI-1
NCI/ADR-RES = tested on: NCI/ADR-RES
DU-145 = tested on: DU-145
BT-549 = tested on: BT-549
SK-MEL-5 = tested on: SK-MEL-5
786-0 = tested on: 786-0
NCI-H460 = tested on: NCI-H460
SNB-19 = tested on: SNB-19
HOP-92 = tested on: HOP-92
RPMI-8226 = tested on: RPMI-8226
NCI-H522 = tested on: NCI-H522
SNB-75 = tested on: SNB-75
SR = tested on: SR
Malme-3M = tested on: Malme-3M
SK-OV-3 = tested on: SK-OV-3

O=[N+]([O-])c1ccc(C2c3c(O)nc(S)nc3Oc3nc(S)nc(O)c32)cc1
GI50 (HL-60): > 100 µM (inactive)
GI50 (NCI-H23): > 100 µM (inactive)
GI50 (LOX IMVI): > 100 µM (inactive)
GI50 (ACHN): > 100 µM (inactive)
GI50 (MOLT-4): > 100 µM (inactive)
GI50 (CAKI-1): > 100 µM (inactive)
GI50 (NCI/ADR-RES): > 100 µM (inactive)
GI50 (DU-145): > 100 µM (inactive)
GI50 (BT-549): > 100 µM (inactive)
GI50 (SK-MEL-5): > 100 µM (inactive)
GI50 (786-0): > 100 µM (inactive)
GI50 (NCI-H460): > 100 µM (inactive)
GI50 (SNB-19): > 100 µM (inactive)
GI50 (HOP-92): > 100 µM (inactive)
GI50 (RPMI-8226): > 100 µM (inactive)
GI50 (NCI-H522): > 100 µM (inactive)

Cc1c(OCc2cccc3ccccc23)ccc2c(=O)cc(SCCN3CCOCC3)oc12
GI50 (HL-60): > 100 µM (inactive)
GI50 (SNB-75): > 100 µM (inactive)
GI50 (NCI-H23): > 100 µM (inactive)
GI50 (LOX IMVI): > 100 µM (inactive)
GI50 (ACHN): > 100 µM (inactive)
GI50 (MOLT-4): > 100 µM (inactive)
GI50 (CAKI-1): > 100 µM (inactive)
GI50 (NCI/ADR-RES): > 100 µM (inactive)
GI50 (DU-145): > 100 µM (inactive)
GI50 (BT-549): > 100 µM (inactive)
GI50 (SK-MEL-5): > 100 µM (inactive)
GI50 (786-0): > 100 µM (inactive)
GI50 (NCI-H460): 6.53 µM (inactive)
GI50 (SNB-19): > 100 µM (inactive)
GI50 (HOP-92): > 100 µM (inactive)
GI50 (SR): > 100 µM (inactive)
GI50 (NCI-H522): 90.6 µM (inactive)

O=C1N/C(=N/N=C/c2ccccc2)N/C1=C\c1c[nH]c2ccccc12
GI50 (HL-60): 67.3 µM (inactive)
GI50 (SNB-75): > 100 µM (inactive)
GI50 (NCI-H23): 95.1 µM (inactive)
GI50 (LOX IMVI): 44.1 µM (inactive)
GI50 (Malme-3M): > 100 µM (inactive)
GI50 (ACHN): > 100 µM (inactive)
GI50 (MOLT-4): 25.1 µM (inactive)
GI50 (CAKI-1): > 100 µM (inactive)
GI50 (NCI/ADR-RES): > 100 µM (inactive)
GI50 (DU-145): > 100 µM (inactive)
GI50 (SK-OV-3): > 100 µM (inactive)
GI50 (BT-549): > 100 µM (inactive)
GI50 (SK-MEL-5): > 100 µM (inactive)
GI50 (786-0): 41.5 µM (inactive)
GI50 (NCI-H460): 61 µM (inactive)
GI50 (SNB-19): 22.8 µM (inactive)
GI50 (HOP-92): > 100 µM (inactive)
GI50 (RPMI-8226): 7.52 µM (inactive)
GI50 (NCI-H522): 74.3 µM (inactive)

COc1cc2c(cc1O)C(=O)O[C@@H]1CC=C3CCN(C)[C@H]3[C@H]21
GI50 (SNB-75): > 25 µM (inactive)
GI50 (NCI-H23): > 25 µM (inactive)
GI50 (Malme-3M): > 25 µM (inactive)
GI50 (ACHN): > 25 µM (inactive)
GI50 (MOLT-4): > 25 µM (inactive)
GI50 (CAKI-1): > 25 µM (inactive)
GI50 (NCI/ADR-RES): > 25 µM (inactive)
GI50 (DU-145): > 25 µM (inactive)
GI50 (SK-OV-3): > 25 µM (inactive)
GI50 (BT-549): > 25 µM (inactive)
GI50 (SK-MEL-5): > 25 µM (inactive)
GI50 (786-0): > 25 µM (inactive)
GI50 (SNB-19): > 25 µM (inactive)
GI50 (SR): > 25 µM (inactive)
GI50 (RPMI-8226): > 25 µM (inactive)
GI50 (NCI-H522): > 25 µM (inactive)

[O-][S+](Nc1ccccc1)c1ccc(Cl)cc1 (stereo not drawn)
GI50 (HL-60): > 100 µM (inactive)
GI50 (NCI-H23): > 100 µM (inactive)
GI50 (LOX IMVI): > 100 µM (inactive)
GI50 (Malme-3M): > 100 µM (inactive)
GI50 (ACHN): > 100 µM (inactive)
GI50 (MOLT-4): 31.4 µM (inactive)
GI50 (CAKI-1): > 100 µM (inactive)
GI50 (NCI/ADR-RES): 64.9 µM (inactive)
GI50 (DU-145): 91.4 µM (inactive)
GI50 (BT-549): 32.6 µM (inactive)
GI50 (SK-MEL-5): 35.9 µM (inactive)
GI50 (786-0): > 100 µM (inactive)
GI50 (NCI-H460): 56 µM (inactive)
GI50 (SNB-19): > 100 µM (inactive)
GI50 (SR): 16.4 µM (inactive)
GI50 (RPMI-8226): > 100 µM (inactive)
GI50 (NCI-H522): 73.3 µM (inactive)

CCCCCCc1cc2cc(C(=O)Nc3ccc(F)cc3)c(=N)oc2cc1O
GI50 (HL-60): 1.96 µM (inactive)
GI50 (NCI-H23): 1.78 µM (inactive)
GI50 (LOX IMVI): 2.08 µM (inactive)
GI50 (Malme-3M): 2.32 µM (inactive)
GI50 (ACHN): 2.89 µM (inactive)
GI50 (MOLT-4): 1.93 µM (inactive)
GI50 (CAKI-1): 3.09 µM (inactive)
GI50 (NCI/ADR-RES): 2.67 µM (inactive)
GI50 (DU-145): 2.71 µM (inactive)
GI50 (SK-OV-3): 2.58 µM (inactive)
GI50 (BT-549): 2.66 µM (inactive)
GI50 (SK-MEL-5): 1.4 µM (inactive)
GI50 (786-0): 3.63 µM (inactive)
GI50 (NCI-H460): 3.51 µM (inactive)
GI50 (SNB-19): 2.98 µM (inactive)
GI50 (SR): 2.62 µM (inactive)
GI50 (RPMI-8226): 1.17 µM (inactive)
GI50 (NCI-H522): 0.655 µM (active)

COC(=O)/C=C(C)/C=C\COC1CCCCO1 (stereo not drawn)
GI50 (HL-60): > 100 µM (inactive)
GI50 (SNB-75): > 100 µM (inactive)
GI50 (NCI-H23): > 100 µM (inactive)
GI50 (LOX IMVI): > 100 µM (inactive)
GI50 (Malme-3M): > 100 µM (inactive)
GI50 (ACHN): > 100 µM (inactive)
GI50 (MOLT-4): > 100 µM (inactive)
GI50 (CAKI-1): > 100 µM (inactive)
GI50 (NCI/ADR-RES): > 100 µM (inactive)
GI50 (DU-145): > 100 µM (inactive)
GI50 (SK-OV-3): > 100 µM (inactive)
GI50 (BT-549): > 100 µM (inactive)
GI50 (SK-MEL-5): > 100 µM (inactive)
GI50 (786-0): > 100 µM (inactive)
GI50 (NCI-H460): > 100 µM (inactive)
GI50 (SNB-19): > 100 µM (inactive)
GI50 (SR): > 100 µM (inactive)
GI50 (RPMI-8226): > 100 µM (inactive)
GI50 (NCI-H522): > 100 µM (inactive)

Nc1c(-c2ccccc2)c2ccc([N+](=O)[O-])cc2c(=O)n1-c1cccc(C(=O)O)c1
GI50 (HL-60): 38.3 µM (inactive)
GI50 (SNB-75): > 100 µM (inactive)
GI50 (NCI-H23): > 100 µM (inactive)
GI50 (LOX IMVI): > 100 µM (inactive)
GI50 (ACHN): > 100 µM (inactive)
GI50 (MOLT-4): > 100 µM (inactive)
GI50 (CAKI-1): > 100 µM (inactive)
GI50 (NCI/ADR-RES): > 100 µM (inactive)
GI50 (DU-145): > 100 µM (inactive)
GI50 (SK-OV-3): > 100 µM (inactive)
GI50 (BT-549): 51.9 µM (inactive)
GI50 (SK-MEL-5): > 100 µM (inactive)
GI50 (786-0): > 10 µM (inactive)
GI50 (NCI-H460): > 100 µM (inactive)
GI50 (SNB-19): > 100 µM (inactive)
GI50 (SR): > 100 µM (inactive)
GI50 (RPMI-8226): > 100 µM (inactive)
GI50 (NCI-H522): > 100 µM (inactive)

O=c1[nH]nc(Cc2ccccc2)n1CCCl
GI50 (HL-60): > 100 µM (inactive)
GI50 (SNB-75): > 100 µM (inactive)
GI50 (NCI-H23): > 100 µM (inactive)
GI50 (LOX IMVI): > 100 µM (inactive)
GI50 (Malme-3M): > 100 µM (inactive)
GI50 (MOLT-4): > 100 µM (inactive)
GI50 (CAKI-1): > 100 µM (inactive)
GI50 (NCI/ADR-RES): > 100 µM (inactive)
GI50 (DU-145): > 100 µM (inactive)
GI50 (SK-OV-3): > 100 µM (inactive)
GI50 (BT-549): > 100 µM (inactive)
GI50 (786-0): > 100 µM (inactive)
GI50 (NCI-H460): > 100 µM (inactive)
GI50 (SNB-19): > 100 µM (inactive)
GI50 (SR): > 100 µM (inactive)
GI50 (RPMI-8226): > 100 µM (inactive)

S=C(Nc1ccccc1)c1ccc(CN2CCCCC2)s1
GI50 (HL-60): 14.9 µM (inactive)
GI50 (NCI-H23): 19.4 µM (inactive)
GI50 (LOX IMVI): 17.7 µM (inactive)
GI50 (Malme-3M): 21 µM (inactive)
GI50 (ACHN): 45 µM (inactive)
GI50 (MOLT-4): 16.1 µM (inactive)
GI50 (CAKI-1): 20.7 µM (inactive)
GI50 (NCI/ADR-RES): 28.6 µM (inactive)
GI50 (DU-145): 60.1 µM (inactive)
GI50 (SK-OV-3): 19.5 µM (inactive)
GI50 (BT-549): 21.4 µM (inactive)
GI50 (SK-MEL-5): 16.3 µM (inactive)
GI50 (786-0): 17.6 µM (inactive)
GI50 (NCI-H460): 21.6 µM (inactive)
GI50 (SNB-19): 20.2 µM (inactive)
GI50 (SR): 15.6 µM (inactive)
GI50 (RPMI-8226): 21.7 µM (inactive)
GI50 (NCI-H522): 17.8 µM (inactive)

CC(C)=CC1C(COC(=O)c2cc3c(cc2Cl)OCO3)C1(C)C (stereo not drawn)
GI50 (HL-60): 20.9 µM (inactive)
GI50 (NCI-H23): 33.3 µM (inactive)
GI50 (LOX IMVI): 22.3 µM (inactive)
GI50 (Malme-3M): 14.2 µM (inactive)
GI50 (ACHN): 33.1 µM (inactive)
GI50 (MOLT-4): 16.1 µM (inactive)
GI50 (CAKI-1): 22.7 µM (inactive)
GI50 (NCI/ADR-RES): 35.6 µM (inactive)
GI50 (DU-145): 28.4 µM (inactive)
GI50 (BT-549): 33 µM (inactive)
GI50 (SK-MEL-5): 20 µM (inactive)
GI50 (786-0): 37.8 µM (inactive)
GI50 (NCI-H460): 33 µM (inactive)
GI50 (SNB-19): 95.7 µM (inactive)
GI50 (HOP-92): 23.8 µM (inactive)
GI50 (SR): 21.3 µM (inactive)
GI50 (NCI-H522): 18 µM (inactive)

COC(=O)C12CCCN1CCC2
GI50 (SNB-75): > 100 µM (inactive)
GI50 (NCI-H23): > 100 µM (inactive)
GI50 (LOX IMVI): > 100 µM (inactive)
GI50 (Malme-3M): > 100 µM (inactive)
GI50 (ACHN): > 100 µM (inactive)
GI50 (MOLT-4): > 100 µM (inactive)
GI50 (CAKI-1): > 100 µM (inactive)
GI50 (NCI/ADR-RES): > 100 µM (inactive)
GI50 (DU-145): > 100 µM (inactive)
GI50 (SK-OV-3): > 100 µM (inactive)
GI50 (BT-549): > 100 µM (inactive)
GI50 (SK-MEL-5): > 100 µM (inactive)
GI50 (786-0): > 100 µM (inactive)
GI50 (NCI-H460): > 100 µM (inactive)
GI50 (SNB-19): > 100 µM (inactive)
GI50 (SR): > 100 µM (inactive)
GI50 (NCI-H522): > 100 µM (inactive)

— ChEMBL document CHEMBL1201862, “PubChem BioAssay data set” (2004)
